Results taken from patent US20110021455A1, “STERILISED SUCRALFATE GEL” (PIERRE FABRE DERMO-COSMETIQUE, priority 2008, published 2011).

Experiments:
[1] = Sterilisation by gamma rays; format: physicochemical; details: in the form of powder and gel; composition yellows
Source text: In fact, after various tests, it seemed that sucralfate, both in the form of powder and gel, is unstable during sterilisation by gamma rays since the composition yellows.

[2] = Sterilisation with ethylene oxide; format: physicochemical; details: requires a long and costly desorption phase

Substance: sucralfate
- stability during sterilisation by gamma rays [1]: unstable
- adsorption of ethylene oxide on sucralfate during sterilisation [2]: substantial adsorption
